Laboratory results taken from paper PMC12434071, “Platinum-group metal half-sandwich complexes of 1-(α-D-glucopyranosyl)-4-hetaryl-1,2,3-triazoles: synthesis, solution equilibrium studies, and investigation of their anticancer and antimicrobial activities” (Frontiers in Chemistry, 2025).

What was measured:
A2780 cells = experiment: MTT reduction assay on A2780 cells; type: cell-based; conditions: maximal inhibition; 4 h treatment; maximum concentration 100 µM
Description: For MTT assays, 4 × 10^3 A2780 cells were plated into 96-well plates, and for SRB assays, 1.5 × 10^3 A2780 cells were plated into 96-well plates. Cells were treated with the compounds in the concentrations indicated for either 4 h for an MTT assay or for 48 h for an SRB assay. Data are represented as average ± SD, from four biological replicates, with the exception of the MTT dataset of Ir-2b and the SRB datasets of 2b, Ru/Ir-2b, and Ir-3a, which were derived from three biological replicates. Individual assays were performed in duplicate. Values were normalized for vehicle-treated cells, and the absorbance for vehicle-treated cells equals 1. Data are represented as fold change compared to vehicle-treated controls. Normality was assessed using the D'Agostino-Pearson test. Statistical significance was assessed using a two-way ANOVA test followed by Tukey's post hoc test. For better visibility, normality, transformations, statistical tests, and p values are presented in an MS Excel sheet at https://figshare.com/s/3a0aa60b66f3f746f41e. Color code: black-free ligand (2a,b or 3a), khaki-ruthenium complex (Ru-2a,b or Ru-3a), green-iridium complex (Ir-2a,b or Ir-3a).  FIGURE 5 The ruthenium, osmium, and iridium complexes of ligands 4a, 4b, and 5a decrease MTT reduction. For MTT assays, 4 × 10^3 A2780 cells, 3 × 10^3 ID8 cells, or 6 × 10^3 human primary fibroblasts were plated into 96-well plates. Cells were treated with the compounds in the concentrations indicated for 4 h. Data are represented as average ± SD, from four biological replicates on A2780, and from three biological replicates on ID8 and human primary fibroblasts. For the datasets of 5a and Os-5a on human primary fibroblasts, the data represent four biological replicates. Individual assays were performed in duplicate. Values were normalized for vehicle-treated cells, and the absorbance for vehicle-treated cells equals 1. Normality was assessed using the D'Agostino-Pearson test. Statistical significance was assessed using a two-way ANOVA test followed by Tukey's post hoc test. For better visibility, normality, transformations, statistical tests, and p values are presented in an MS Excel sheet at https://figshare.com/s/3a0aa60b66f3f746f41e. Color code: black-free ligand (4a,b or 5a), khaki-ruthenium complex (Ru-4a,b), green-iridium complex (Ir-4a,b), blue-osmium complex (Os-4a,b or Os-5a), and red-rhodium complex (Rh-4a,b). An MTT reduction assay measures the activity of mitochondrial complex I and can be used to detect toxicity ([[…] et al., 2016]). The assay was performed in a manner similar to that described by [[…] et al. (2023b)]. Briefly, cells were plated into 96-well plates the day before the assay. Cells were treated with the compounds for 4 h; then, MTT was added to a 0.5 mg/mL final concentration, and cells were incubated at 37°C in a cell incubator for 40-60 min, as a function of the cell line being assessed. The culture medium was removed, the reduced MTT dye was dissolved in dimethylsulfoxide, and plates were measured in a plate photometer (Thermo Scientific Multiscan GO spectrophotometer, Waltham, MA, United States) at 540 nm. Certain wells were designated to contain vehicle-treated cells on each plate. In calculations, the readings for these wells were considered to 1, and all readings were expressed relative to these values. Statistical analysis was performed using version 8.0.1 of GraphPad Prism. Values were tested for normal distribution using the D'Agostino-Pearson or Shapiro-Wilk normality tests. When necessary, values were log-normalized or normalized using the Box-Cox or two-step normalization method ([Box and Cox, 1964]), as indicated in the MS Excel file listing the values at https://figshare.com/s/3a0aa60b66f3f746f41e. The following statistical test, post hoc test, and the level of significance are indicated in the MS Excel file listing the values at https://figshare.com/s/3a0aa60b66f3f746f41e. […]

[1] = system: human primary dermal fibroblasts; experiment: MTT reduction assay on human primary dermal fibroblasts; type: cell-based; conditions: maximal inhibition; 4 h treatment; maximum concentration 100 µM
Description: FIGURE 5 The ruthenium, osmium, and iridium complexes of ligands 4a, 4b, and 5a decrease MTT reduction. For MTT assays, 4 × 10^3 A2780 cells, 3 × 10^3 ID8 cells, or 6 × 10^3 human primary fibroblasts were plated into 96-well plates. Cells were treated with the compounds in the concentrations indicated for 4 h. Data are represented as average ± SD, from four biological replicates on A2780, and from three biological replicates on ID8 and human primary fibroblasts. For the datasets of 5a and Os-5a on human primary fibroblasts, the data represent four biological replicates. Individual assays were performed in duplicate. Values were normalized for vehicle-treated cells, and the absorbance for vehicle-treated cells equals 1. Normality was assessed using the D'Agostino-Pearson test. Statistical significance was assessed using a two-way ANOVA test followed by Tukey's post hoc test. For better visibility, normality, transformations, statistical tests, and p values are presented in an MS Excel sheet at https://figshare.com/s/3a0aa60b66f3f746f41e. Color code: black-free ligand (4a,b or 5a), khaki-ruthenium complex (Ru-4a,b), green-iridium complex (Ir-4a,b), blue-osmium complex (Os-4a,b or Os-5a), and red-rhodium complex (Rh-4a,b). An MTT reduction assay measures the activity of mitochondrial complex I and can be used to detect toxicity ([[…] et al., 2016]). The assay was performed in a manner similar to that described by [[…] et al. (2023b)]. Briefly, cells were plated into 96-well plates the day before the assay. Cells were treated with the compounds for 4 h; then, MTT was added to a 0.5 mg/mL final concentration, and cells were incubated at 37°C in a cell incubator for 40-60 min, as a function of the cell line being assessed. The culture medium was removed, the reduced MTT dye was dissolved in dimethylsulfoxide, and plates were measured in a plate photometer (Thermo Scientific Multiscan GO spectrophotometer, Waltham, MA, United States) at 540 nm. […] In calculations, the readings for these wells were considered to 1, and all readings were expressed relative to these values. […]

SMILES | A2780 MTT max % (A2780 cells) [%] | Fibroblast MTT max % [1] [%]
OC[C@H]1O[C@H](n2cc(-c3ccccn3)nn2)[C@H](O)[C@@H](O)[C@@H]1O [Complex 3a, 1-(α-D-Glucopyranosyl)-4-(pyridin-2-yl)-1,2,3-triazole] | 0 | –
O=C(OC[C@H]1O[C@H](n2cc(-c3ccccn3)nn2)[C@H](OC(=O)c2ccccc2)[C@@H](OC(=O)c2ccccc2)[C@@H]1OC(=O)c1ccccc1)c1ccccc1 [Complex 4a, 1-(2’,3’,4’,6’-Tetra-O-benzoyl-α-D-glucopyranosyl)-4-(pyridin-2-yl)-1,2,3-triazole] | 0 | 0
O=C(OC[C@H]1O[C@H](n2cc(-c3ccc4ccccc4n3)nn2)[C@H](OC(=O)c2ccccc2)[C@@H](OC(=O)c2ccccc2)[C@@H]1OC(=O)c1ccccc1)c1ccccc1 [Complex 4b, 1-(2’,3’,4’,6’-Tetra-O-benzoyl-α-D-glucopyranosyl)-4-(quinolin-2-yl)-1,2,3-triazole] | 0 | 0
CCCCC(=O)OC[C@H]1O[C@H](n2cc(-c3ccccn3)nn2)[C@H](OC(=O)CCCC)[C@@H](OC(=O)CCCC)[C@@H]1OC(=O)CCCC [Complex 5a, 1-(2’,3’,4’,6’-Tetra-O-pentanoyl-α-D-glucopyranosyl)-4-(pyridin-2-yl)-1,2,3-triazole] | 0 | 15.72
